{"source": "patent US20240108598A1", "about": "“Danegaptide for Use in the Treatment or Prevention of a Kidney Disease” (CIANA THERAPEUTICS APS, priority 2021, published 2024)", "format_in_all_cases": "cell-based, human", "key": {"primary hPTECs [1]": {"system": "primary hPTECs", "assay": "qPCR of cell cycle and reno-protective marker mRNA", "conditions": "TGFβ1 10 ng/mL + danegaptide 100 nM, 12 h", "method": "Primary hPTECs were cultured in low (5 mM) glucose±TGFβ1 (10 ng/mL)±danegaptide (100 nM) for 12 h. […] Danegaptide (100 nM) negated the increase in p16, p21, cyclinD1 (▴▴▴P<0.001; mean±SEM, n=3) and partly reversed the TGFβ1-evoked change in Klotho.\nTo determine if danegaptide can negate hemichannel-mediated regulation of common cell cycle and reno-protective markers, hPTECs were incubated with TGFβ1 (10 ng/mL)±danegaptide (100 nM) for 12 h and expression of candidate gene mRNA assessed through qPCR analysis.\nRNA was extracted using an RNeasy mini kit (QIAGEN) and reverse transcribed (Invitrogen). Real-time PCR (SYBR GreenER, Invitrogen) was performed using a StepOne Plus instrument (Applied Biosystems Inc, Foster City, CA). cDNA expression was obtained by comparing to a standard curve of serially-diluted cDNA. The following primers were used: p16 (forward: […], reverse: […]), p21 (forward: […], reverse: […]), cyclinD1 (forward: […], reverse: […]), Klotho (forward: […], reverse: […]). Melt curve analysis confirmed primer specificity and checked for potential contamination."}, "primary hPTECs [2]": {"system": "primary hPTECs", "assay": "Inflammation antibody array, cell lysates (Table 1)", "conditions": "hPTEC lysate; TGF-β1 10 ng/mL + DG 100 nM, 48 h", "excerpt": "An inflammation antibody array was used to assess regulation of 31 candidate inflammatory proteins in cell lysates from hPTEC cells treated with TGFβ1±danegaptide. Results are representative of 3 separate experiments and presented as mean±SEM, n=3 with key significances indicated (*P<0.05, **P<0.01, ***P<0.001; one-way ANOVA and Tukey's post-test).\nA proteome profiler array (Human Cytokine Array Kit from R&D Systems, Oxfordshire, UK) was used, to determine if danegaptide negates TGFβ1-induced changes in expression and secretion of key pro-inflammatory mediators. Primary hPTECs were cultured as described above and treated with TGFβ1 (10 ng/mL)±danegaptide (100 nM) for 48 h."}, "primary hPTECs [3]": {"system": "primary hPTECs", "assay": "Western blotting of extracellular matrix proteins", "conditions": "TGFβ1 10 ng/mL + danegaptide 100 nM, 48 h", "method": "Primary hPTECs were cultured in low (5 mM) glucose±TGFβ1 (10 ng/mL)±danegaptide (100 nM) for 48 h. In panel A, expression of the ECM proteins collagen I (Col1), collagen IV (Col4), fibronectin (Fibro), and Laminin (panel B) were assessed via western blotting. […] Danegaptide partially reversed the TGFβ1 evoked change in Integrin Linked Kinase 1 (ILK1; ▴▴▴P<0.001) but had negligible effect on Matrix Metalloproteinase 3 (MMP3). All bars correspond mean±SEM, (n=3) and representative blots are shown with expression normalised by re-probing for α-tubulin as a loading control.\nTo determine if danegaptide can negate TGFβ1-mediated changes in adherens and tight junction proteins, hPTECs were incubated with TGFβ1 (10 ng/mL)±danegaptide (100 nM) for 48 h and expression of candidate proteins assessed by Western blotting. Preparation of cytosolic protein from HK2 and HPTEC cells, their separation by SDS-gel electrophoresis and transfer onto Immobilon-FI PVDF membranes have been described previously (Price, G. W.; Chadjichristos, C. E.; Kavvadas, P.; Tang, S. C. W.; Yiu, W. H.; Green, C. R.; Potter, J. A.; Siamantouras, E.; Squires, P. E.; Hills, C. E. Blocking Connexin-43 mediated hemichannel activity protects against early tubular injury in experimental chronic kidney disease. Cell Commun. Signal. 2020, 18). Membranes were blocked using Odyssey blocking buffer (LI-COR), then probed overnight with antibodies against E-cadherin (1:1000), N-cadherin (1:1000), claudin-2 (1:500) and ZO-1 (1:1000), Col I (1:1000), Col IV (1:2000), Fibronectin (1:4000), Laminin (1:500), ILK1 (1:500), beta-catenin (1:2000), Vimentin (1:500), MMP3 (1:500). Bands were visualised using an OdysseyFC and semi-quantified using ImageStudio (v5.2, LI-COR). Additionally, transepithelial electrical resistance (TER) was measured as a functional measure of epithelial cell-cell coupling and paracellular permeability.\nTo examine the effect of danegaptide on TGFβ1-evoked changes in expression of ECM proteins, hPTEC cells were cultured in low (5 mM) glucose for 48 h, serum starved overnight and treated with TGFβ1 (10 ng/mL)±danegaptide (100 nM) for 48 h. Expression of the ECM proteins collagen I, collagen IV, fibronectin, Laminin, Integrin Linked Kinase 1, and Matrix Metalloproteinase 3 were assessed via western blotting."}}}
{"smiles": "NCC(=O)N1C[C@H](NC(=O)c2ccccc2)C[C@H]1C(=O)O", "note": "[danegaptide, (2S,4R)-1-(2-aminoacetyl)-4-benzamidopyrrolidine2-carboxylic acid]", "values": [{"measurement": "Klotho mRNA expression, of control", "setting": "primary hPTECs [1]", "value": "59.9±11.7", "unit": "%"}, {"measurement": "cyclinD1 mRNA expression, of control", "setting": "primary hPTECs [1]", "value": "132.9±15.0", "unit": "%"}, {"measurement": "p16 mRNA expression, of control", "setting": "primary hPTECs [1]", "value": "193±18.5", "unit": "%"}, {"measurement": "p21 mRNA expression, of control", "setting": "primary hPTECs [1]", "value": "142.2±6.2", "unit": "%"}, {"measurement": "Angiogenin in lysate (% compared to control)", "setting": "primary hPTECs [2]", "value": "100 ± 20.3", "unit": "%"}, {"measurement": "Cystatin C in lysate (% compared to control)", "setting": "primary hPTECs [2]", "value": "123 ± 14.3", "unit": "%"}, {"measurement": "DPPIV in lysate (% compared to control)", "setting": "primary hPTECs [2]", "value": "187 ± 25.2", "unit": "%"}, {"measurement": "ENA 78 in lysate (% compared to control)", "setting": "primary hPTECs [2]", "value": "97 ± 18.2", "unit": "%"}, {"measurement": "Endoglin in lysate (% compared to control)", "setting": "primary hPTECs [2]", "value": "72.3 ± 8.9^ %"}, {"measurement": "FGF7 in lysate (% compared to control)", "setting": "primary hPTECs [2]", "value": "106 ± 15.2", "unit": "%"}, {"measurement": "Flt 3 Ligand in lysate (% compared to control)", "setting": "primary hPTECs [2]", "value": "208 ± 31.4", "unit": "%"}, {"measurement": "G-CSF in lysate (% compared to control)", "setting": "primary hPTECs [2]", "value": "126 ± 4.7", "unit": "%"}, {"measurement": "GM-CSF in lysate (% compared to control)", "setting": "primary hPTECs [2]", "value": "136 ± 11.6", "unit": "%"}, {"measurement": "HGF in lysate (% compared to control)", "setting": "primary hPTECs [2]", "value": "104.0 ± 9.0", "unit": "%"}, {"measurement": "ICAM 1 in lysate (% compared to control)", "setting": "primary hPTECs [2]", "value": "80 ± 28.7", "unit": "%"}, {"measurement": "IFNg in lysate (% compared to control)", "setting": "primary hPTECs [2]", "value": "112 ± 12.7", "unit": "%"}, {"measurement": "IGFBP2 in lysate (% compared to control)", "setting": "primary hPTECs [2]", "value": "334 ± 66.1", "unit": "%"}, {"measurement": "IGFBP3 in lysate (% compared to control)", "setting": "primary hPTECs [2]", "value": "97 ± 28.5", "unit": "%"}, {"measurement": "IL1A in lysate (% compared to control)", "setting": "primary hPTECs [2]", "value": "80 ± 18.8", "unit": "%"}, {"measurement": "IL3 in lysate (% compared to control)", "setting": "primary hPTECs [2]", "value": "129 ± 15.7", "unit": "%"}, {"measurement": "IL8 in lysate (% compared to control)", "setting": "primary hPTECs [2]", "value": "122 ± 5.2", "unit": "%"}, {"measurement": "IL12 p70 in lysate (% compared to control)", "setting": "primary hPTECs [2]", "value": "97 ± 4.6", "unit": "%"}, {"measurement": "IL13 in lysate (% compared to control)", "setting": "primary hPTECs [2]", "value": "150 ± 46.0", "unit": "%"}, {"measurement": "Kallikrein 3 in lysate (% compared to control)", "setting": "primary hPTECs [2]", "value": "67 ± 14.3", "unit": "%"}, {"measurement": "LIF in lysate (% compared to control)", "setting": "primary hPTECs [2]", "value": "225 ± 82^ %"}, {"measurement": "MCP-1 in lysate (% compared to control)", "setting": "primary hPTECs [2]", "value": "97.6 ± 13.9", "unit": "%"}, {"measurement": "MMP9 in lysate (% compared to control)", "setting": "primary hPTECs [2]", "value": "95 ± 10.6", "unit": "%"}, {"measurement": "PDGF-AA/BB in lysate (% compared to control)", "setting": "primary hPTECs [2]", "value": "95.2 ± 14.6", "unit": "%"}, {"measurement": "RAGE in lysate (% compared to control)", "setting": "primary hPTECs [2]", "value": "105 ± 9.2", "unit": "%"}, {"measurement": "RANTES in lysate (% compared to control)", "setting": "primary hPTECs [2]", "value": "104 ± 15.2", "unit": "%"}, {"measurement": "Serpin E1 in lysate (% compared to control)", "setting": "primary hPTECs [2]", "value": "148 ± 28.5", "unit": "%"}, {"measurement": "TFF3 in lysate (% compared to control)", "setting": "primary hPTECs [2]", "value": "132 ± 3.9", "unit": "%"}, {"measurement": "TNF-α in lysate (% compared to control)", "setting": "primary hPTECs [2]", "value": "144 ± 18.5", "unit": "%"}, {"measurement": "Thrombospondin-1 in lysate (% compared to control)", "setting": "primary hPTECs [2]", "value": "100 ± 19.8", "unit": "%"}, {"measurement": "VEGF in lysate (% compared to control)", "setting": "primary hPTECs [2]", "value": "101 ± 16.4", "unit": "%"}, {"measurement": "Integrin Linked Kinase 1 (ILK1) expression, compared to control", "setting": "primary hPTECs [3]", "value": "251.8±33", "unit": "%"}, {"measurement": "Matrix Metalloproteinase 3 (MMP3) expression, compared to control", "setting": "primary hPTECs [3]", "value": "147.1±12.2", "unit": "%"}, {"measurement": "collagen I expression, compared to control", "setting": "primary hPTECs [3]", "value": "180.7±27.3", "unit": "%"}, {"measurement": "collagen IV expression, compared to control", "setting": "primary hPTECs [3]", "value": "164.2±6.9", "unit": "%"}, {"measurement": "fibronectin expression, compared to control", "setting": "primary hPTECs [3]", "value": "161.3±4", "unit": "%"}, {"measurement": "laminin expression, compared to control", "setting": "primary hPTECs [3]", "value": "149±20.4", "unit": "%"}]}
